Experimental data from article PMC5701185, “Evidence for PII with NAGK interaction that regulates Arg synthesis in the microalga Myrmecia incisa in response to nitrogen starvation” (Scientific Reports, 2017).
Each block holds one compound with its values, some of them ahead of it.

Experiments:
[1] = molecular target: T1, MiPII with MiNAGK (Lobosphaera incisa, UniProt A0A2R4H197); experiment: hydroxamate-Fe([…]+) NAGK assay, […] nm; assay type: biochemical; settings: read-out: % inhibition at 1 mM
T1 construct: gene glnB; same proteins as P2; effector site on PII (209-aa precursor, 52-aa signal peptide removed, N-terminal His-tag kept, 21-kD band); read-out NAGK activity; with Acetylglutamate kinase, chloroplastic

[2] = molecular target: T1, MiPII with MiNAGK; experiment: hydroxamate-Fe([…]+) NAGK assay, […] nm; assay type: biochemical; settings: read-out: half-maximal effective concentration
[3] = molecular target: recombinant MiPII fused to the His-tag (pET-PII) (Myrmecia incisa); experiment: co-IP; purified recombinant MiPII (200 ug) and MiNAGK (400 ug) in 1 mL 50 mM Tris-HCl pH 7.5, 100 mM KCl, with ATP (3 mM) and Mg2+ (6 mM), with or without 2-OG (5 mM); 1 h at room temperature; precipitated with rabbit anti-MiPII polyclonal antibody and protein A Sepharose; SDS-PAGE, Coomassie staining, band intensity by ImageJ
[4] = molecular target: recombinant MiNAGK fused to the His-tag (pET-NAGK) (Myrmecia incisa)
Sequence of recombinant MiNAGK fused to the His-tag (pET-NAGK) (Myrmecia incisa) (main, as listed by the source): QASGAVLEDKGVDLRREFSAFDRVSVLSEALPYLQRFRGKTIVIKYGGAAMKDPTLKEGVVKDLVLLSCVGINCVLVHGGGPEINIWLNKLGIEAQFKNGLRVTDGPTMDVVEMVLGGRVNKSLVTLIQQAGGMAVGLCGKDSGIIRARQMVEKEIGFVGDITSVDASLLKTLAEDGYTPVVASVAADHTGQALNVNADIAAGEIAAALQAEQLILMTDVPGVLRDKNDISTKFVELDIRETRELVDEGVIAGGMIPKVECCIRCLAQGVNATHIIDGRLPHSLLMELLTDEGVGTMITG

T1 sequence (A0A2R4H197 53-209): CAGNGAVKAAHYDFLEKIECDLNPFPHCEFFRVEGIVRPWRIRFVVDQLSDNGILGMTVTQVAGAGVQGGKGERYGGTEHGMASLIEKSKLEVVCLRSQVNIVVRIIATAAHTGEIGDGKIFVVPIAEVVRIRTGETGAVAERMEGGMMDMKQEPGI
Sequence of recombinant MiPII fused to the His-tag (pET-PII) (Myrmecia incisa) (main, as listed by the source): as the sequence (A0A2R4H197 53-209) above

- inhibition at 1000 µM [1]: ~30%
Compound: O=C(O)CCC(=O)C(=O)O [2-OG]

- EC50 [2]: ~3 mM
Compound: NC(=O)CC[C@H](N)C(=O)O [Gln]

- intensity of the stained MiNAGK band in the precipitate with 2-OG relative to without 2-OG [3]: 0.65 times
Compound: recombinant MiNAGK fused to the His-tag (pET-NAGK) (enzyme)

- specific activity of recombinant MiNAGK with MiPII (10 ug) and Gln (10 mM), 2-OG from 0 to 4 mM; value at 1 mM 2-OG [4]: 30%
Compound: recombinant MiPII fused to the His-tag (pET-PII) (natural protein)
